From patent US20200223889A1, “Bicyclic Compounds Capable of Binding to Melanocortin 4 Receptor” (Novo Nordisk A/S, priority 2017, published 2020)
Read-outs that look alike come from different tables or passages of the source. Positions of bridges follow the written chain, without caps; N, C: chain ends. Non-standard residues stand in square brackets, D forms with d. Residues, ends and D or L forms follow the SMILES beside them. Phe(3,4-Cl2) = N[C@@H](Cc1ccc(Cl)c(Cl)c1)C(=O)O; Pip = O=C(O)[C@@H]1CCCCN1; Thz = O=C(O)[C@@H]1CSCN1; Sar = CNCC(=O)O

Columns and labels:
human MC1R = biological target: T1, human MC1R (Homo sapiens, UniProt Q01726); assay: Functional cAMP assay (CisBio HTRF) in BHK cells expressing human MC1R; format: cell-based
T1 construct: expressed in transfected cells
Method: In order to assess the potency of the compounds on human MC1R and human MC4R cAMP signalling was measured.
cAMP induction was measured by c-AMPdynamic2 assay, HTRF 62AM4PEC system from CisBio for the human MC1R and human MC4R according to the protocol provided by the vendor. BHK cells expressing the human MC1 or MC4 receptor were generated by stable transfection with expression vectors encoding the cDNA of either MC1R or MC4R.
In details; 25 μl compound—or standard solution were added in the respective wells. Compound was reconstituted in buffer (DMEM w/o phenol red, 10 mM
Hepes, lx Glutamine, 0.1% OV-albumin1, 1 mM IBMX) and serially diluted starting at 2 μM, 10-fold seven times. Dilutions were carried out in the same aforementioned buffer to the desired working concentration ranges (2× higher than the final concentration). 25 μl cell solution was then added and allowed to incubate for 30 min while lightly shaking, at 25° C. […] The provided components for the assay were reconstituted according to the CisBio assay protocol “3.1 supplied reagents and preparation procedure” in MilliQ purification system H2O and diluted 1:20 in lysis buffer. 25 μl cAMP-d2 and 25 μl Cryptate conjugate were added to all wells.
Plates were centrifuged at 1500 rpm for 30 sec and incubated for 1 h, lightly shaking, at 25° C. in a hotel stacker. The plates were read on Mithras LB 940 provided by Berthold Technologies The data were analysed by non-linear regression analysis of binding curves, using the Windows™ program GraphPad™ Prism (GraphPad Software, USA).
The latter is used when no full curve can be obtained in the concentration ranges indicated above.

human MC4R [1] = biological target: T2, human MC4R (Homo sapiens, UniProt P32245); assay: Functional cAMP assay (CisBio HTRF) in BHK cells expressing human MC4R; format: cell-based; details: for MC1R/MC4R cAMP EC50 ratio: MC1R cAMP EC50 divided by MC4R cAMP EC50
T2 construct: expressed in transfected cells
How it was run: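 Stably transfected BHK cells expressing human MC1R or MC4R; cAMP quantified by HTRF (cAMP-d2/cryptate) after 30 min compound stimulation at 25 °C in DMEM-based buffer with 1 mM IBMX. Compounds were prepared as 10-fold serial dilutions starting at 2 μM (working solution, 2× final). Readout after 1 h at 25 °C; non-linear regression.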

human MC4R [2] = biological target: T2, human MC4R; assay: 125NDP-α-MSH competitive binding to membranes of BHK cells expressing human MC4 receptor (filtration assay)
How it was run: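 Displacement of ^125NDP-α-MSH (apx. […] final) was measured by filtration after 2 h at 25 °C, using diluted membranes of stably transfected BHK cells in pH 7.0 HEPES buffer. Compounds spanned 1 μM to 0.001 nM; binding curves were analysed by non-linear regression.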

[3] = BHK cells expressing human MC1R, '>' = highest dose used with no response, read-out: MC1R cAMP EC50
[4] = BHK cells expressing human MC4R, '>' = highest dose used with no response, read-out: MC4R cAMP EC50
[5] = human MC4R, BHK cell membranes, 125NDP-α-MSH radioligand, read-out: MC4R binding Ki

T1 sequence (Q01726 whole entry): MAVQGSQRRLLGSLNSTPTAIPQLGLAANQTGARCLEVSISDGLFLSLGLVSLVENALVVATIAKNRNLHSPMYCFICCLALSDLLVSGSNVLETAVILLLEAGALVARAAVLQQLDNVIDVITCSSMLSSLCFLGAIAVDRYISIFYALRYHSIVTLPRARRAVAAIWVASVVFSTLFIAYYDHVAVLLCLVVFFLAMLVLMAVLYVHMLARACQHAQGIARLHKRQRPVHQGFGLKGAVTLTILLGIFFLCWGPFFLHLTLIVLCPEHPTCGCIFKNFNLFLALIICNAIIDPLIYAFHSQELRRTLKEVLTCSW
T2 sequence (P32245 whole entry): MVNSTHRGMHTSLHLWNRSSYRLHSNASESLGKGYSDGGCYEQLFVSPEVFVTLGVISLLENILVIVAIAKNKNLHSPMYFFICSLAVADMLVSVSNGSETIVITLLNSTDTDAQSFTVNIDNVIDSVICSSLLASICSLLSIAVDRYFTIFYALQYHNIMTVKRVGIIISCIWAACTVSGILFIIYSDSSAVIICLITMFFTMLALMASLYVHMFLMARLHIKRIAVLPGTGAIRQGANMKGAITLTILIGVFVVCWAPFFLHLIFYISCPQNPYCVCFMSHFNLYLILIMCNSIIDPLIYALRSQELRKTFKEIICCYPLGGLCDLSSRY

SMILES	EC50 (human MC1R) [nM]	EC50 (human MC4R [1]) [nM]	MC1R/MC4R cAMP EC50 ratio (human MC4R [1])	Ki (human MC4R [2]) [nM]	EC50 (human MC1R; [3]) [nM]	EC50 (human MC4R [1]; [4]) [nM]	Ki (human MC4R [2]; [5]) [nM]
C[C@@H]1NC(=O)[C@@H]2CSSC[C@H](NC(=O)[C@H](Cc3c[nH]c4ccccc34)NC(=O)[C@H](CCCNC(=N)N)NC(=O)[C@@H](Cc3ccccc3)NC(=O)[C@H](Cc3c[nH]cn3)NC1=O)C(=O)N[C@@H](C)C(=O)N[C@@H](CCC(=O)O)C(=O)N[C@@H](CCC(=O)O)C(=O)N[C@@H](CCC(=O)O)C(=O)N[C@@H](Cc1c[nH]c3ccccc13)C(=O)N2 [Chem. 44, c[c[Cys-Ala-His-D-Phe-Arg-Trp-Cys]- Ala-Glu-Glu-Glu-Trp]] (cyclo(AEEEWCAH[dF]RWC); disulfide 6-12)	31.9	1.53	21	50.9			
C[C@@H]1NC(=O)[C@@H]2CSSC[C@H](NC(=O)[C@H](Cc3c[nH]c4ccccc34)NC(=O)[C@H](CCCNC(=N)N)NC(=O)[C@@H](Cc3ccccc3)NC(=O)[C@H](Cc3c[nH]cn3)NC1=O)C(=O)N[C@@H](CCCNC(=N)N)C(=O)N[C@@H](Cc1ccccc1)C(=O)N[C@@H](Cc1ccccc1)C(=O)N[C@@H](CC(N)=O)C(=O)N[C@@H](C)C(=O)N[C@@H](Cc1ccccc1)C(=O)N2 [Chem. 13, c[c[Cys-Ala-His-D-Phe-Arg-Trp-Cys]- Arg-Phe-Phe-Asn-Ala-Phe]] (cyclo(AFCAH[dF]RWCRFFN); disulfide 3-9)	6.36	0.1	64	0.26			
C[C@@H]1NC(=O)[C@@H]2CSSC[C@H](NC(=O)[C@H](Cc3c[nH]c4ccccc34)NC(=O)[C@H](CCCNC(=N)N)NC(=O)[C@H](Cc3ccccc3)NC(=O)[C@H](Cc3c[nH]cn3)NC1=O)C(=O)N[C@@H](C)C(=O)N[C@@H](Cc1c[nH]cn1)C(=O)N[C@@H](Cc1ccccc1)C(=O)N[C@@H](CCCNC(=N)N)C(=O)N[C@@H](Cc1c[nH]c3ccccc13)C(=O)N2 [Chem. 56, c[c[Cys-Ala-His-Phe-Arg-Trp-Cys]- Ala-His-Phe-Arg-Trp]]	35.3	0.44	80	1.82			
C[C@@H]1NC(=O)[C@H](CCC(=O)O)NC(=O)[C@H](CCC(=O)O)NC(=O)[C@H](C)NC(=O)[C@@H]2CSSC[C@H](NC(=O)[C@H](Cc3c[nH]c4ccccc34)NC1=O)C(=O)N[C@@H](C)C(=O)N[C@@H](Cc1c[nH]cn1)C(=O)N[C@H](Cc1ccccc1)C(=O)N[C@@H](CCCNC(=N)N)C(=O)N[C@@H](Cc1c[nH]c3ccccc13)C(=O)N2 [Chem. 102, c[c[Cys-Ala-His-D-Phe-Arg-Trp-Cys]- Ala-Glu-Glu-Ala-Trp]] (cyclo(AEEAWCAH[dF]RWC); disulfide 6-12)	14.3	0.49	29	10.1			
C[C@@H]1NC(=O)[C@@H]2CSSC[C@H](NC(=O)[C@H](CCCNC(=N)N)NC(=O)[C@H](CCCCN)NC(=O)[C@H](CCCCN)NC(=O)[C@H](CCCCN)NC1=O)C(=O)N(C)CC(=O)N[C@@H](Cc1c[nH]cn1)C(=O)N[C@H](Cc1ccccc1)C(=O)N[C@@H](Cc1c[nH]cn1)C(=O)N[C@@H](Cc1c[nH]c3ccccc13)C(=O)N2 [Chem. 74, c[c[Cys-Sar-His-D-Phe-His-Trp-Cys]- Ala-Lys-Lys-Lys-Arg]] (cyclo(AKKKRC[Sar]H[dF]HWC); disulfide 6-12)			19		> 5.5	0.29	0.08
C[C@@H]1NC(=O)[C@@H]2CSSC[C@H](NC(=O)[C@H](Cc3c[nH]c4ccccc34)NC(=O)[C@H](CCCNC(=N)N)NC(=O)[C@@H](Cc3ccccc3)NC(=O)[C@H](Cc3c[nH]cn3)NC1=O)C(=O)N[C@@H](C)C(=O)N[C@@H](Cc1ccc(O)cc1)C(=O)N[C@@H](Cc1ccccc1)C(=O)N[C@@H](CCCCN)C(=O)N[C@@H](Cc1c[nH]c3ccccc13)C(=O)N2 [Chem. 80, c[c[Cys-Ala-His-D-Phe-Arg-Trp-Cys]- Ala-Tyr-Phe-Lys-Trp]] (cyclo(AH[dF]RWCAYFKWC); disulfide 6-12)			58		8.65	0.15	0.16
C[C@@H]1NC(=O)[C@@H]2CSSC[C@H](NC(=O)[C@H](Cc3ccc(Cl)c(Cl)c3)NC(=O)[C@H](CCCNC(=N)N)NC(=O)[C@@H](Cc3ccccc3)NC(=O)[C@H](Cc3c[nH]cn3)NC1=O)C(=O)N[C@@H](C)C(=O)N[C@@H](CCCCN)C(=O)N[C@@H](CCCCN)C(=O)N[C@@H](CCCCN)C(=O)N[C@@H](Cc1c[nH]c3ccccc13)C(=O)N2 [Chem. 66, c[c[Cys-Ala-His-D-Phe-Arg-3,4-DiCl- Phe-Cys]-Ala-Lys-Lys-Lys-Trp]] (cyclo(AH[dF]R[Phe(3,4-Cl2)]CAKKKWC); disulfide 6-12)			22		0.22	0.01	0.03
C[C@@H]1NC(=O)[C@@H]2CSSC[C@H](NC(=O)[C@H](Cc3c[nH]c4ccccc34)NC(=O)[C@H](CCCCNC(=N)N)NC(=O)[C@@H](Cc3ccccc3)NC(=O)[C@H](Cc3c[nH]cn3)NC1=O)C(=O)N[C@@H](C)C(=O)N[C@@H](Cc1c[nH]cn1)C(=O)N[C@H](Cc1ccccc1)C(=O)N[C@@H](CCCCNC(=N)N)C(=O)N[C@@H](Cc1c[nH]c3ccccc13)C(=O)N2 [Chem. 22, c[c[Cys-Ala-His-D-Phe-HArg-Trp- Cys]-Ala-His-D-Phe-HArg-Trp]]			11		0.22	0.02	0.06
C[C@@H]1NC(=O)[C@@H]2CSSC[C@H](NC(=O)[C@H](Cc3c[nH]c4ccccc34)NC(=O)[C@H](CNC(=N)N)NC(=O)[C@@H](Cc3ccccc3)NC(=O)[C@H](Cc3c[nH]cn3)NC1=O)C(=O)N[C@@H](C)C(=O)N[C@@H](Cc1c[nH]cn1)C(=O)N[C@H](Cc1ccccc1)C(=O)N[C@@H](CNC(=N)N)C(=O)N[C@@H](Cc1c[nH]c3ccccc13)C(=O)N2 [Chem. 42, c[c[Cys-Ala-His-D-Phe-AGP-Trp- Cys]-Ala-His-D-Phe-AGP-Trp]]					> 100	> 1000	≥ 10000
C[C@@H]1NC(=O)[C@@H]2CSSC[C@H](NC(=O)[C@H](Cc3c[nH]c4ccccc34)NC(=O)[C@H](CCCCN)NC(=O)[C@H](CCCCN)NC(=O)[C@H](CCCCN)NC1=O)C(=O)N1CCCC[C@H]1C(=O)N[C@@H](Cc1c[nH]cn1)C(=O)N[C@H](Cc1ccccc1)C(=O)N[C@@H](Cc1c[nH]cn1)C(=O)N[C@@H](Cc1c[nH]c3ccccc13)C(=O)N2 [Chem. 83, c[c[Cys-PIP-His-D-Phe-His-Trp-Cys]- Ala-Lys-Lys-Lys-Trp]] (cyclo(AKKKWC[Pip]H[dF]HWC); disulfide 6-12)			>5		> 10		0.17
O=C(O)CC[C@@H]1NC(=O)[C@@H]2CSSC[C@H](NC(=O)[C@H](Cc3c[nH]c4ccccc34)NC(=O)[C@H](Cc3c[nH]cn3)NC(=O)[C@@H](Cc3ccccc3)NC(=O)[C@H](Cc3c[nH]cn3)NC1=O)C(=O)N[C@@H](CCC(=O)O)C(=O)N[C@@H](Cc1c[nH]cn1)C(=O)N[C@H](Cc1ccccc1)C(=O)N[C@@H](Cc1c[nH]cn1)C(=O)N[C@@H](Cc1c[nH]c3ccccc13)C(=O)N2 [Chem. 53, c[c[Cys-Glu-His-D-Phe-His-Trp-Cys]- Glu-His-D-Phe-His-Trp]] (cyclo(CEH[dF]HWCEH[dF]HW); disulfide 1-7)			>1		> 10		
N=C(N)NCCC[C@@H]1NC(=O)[C@@H](Cc2ccccc2)NC(=O)[C@H](Cc2c[nH]cn2)NC(=O)[C@@H]2CSSC[C@H](NC(=O)[C@H](Cc3c[nH]c4ccccc34)NC1=O)C(=O)N[C@@H](Cc1c[nH]cn1)C(=O)N[C@H](Cc1ccccc1)C(=O)N[C@@H](CCCNC(=N)N)C(=O)N[C@@H](Cc1c[nH]c3ccccc13)C(=O)N2 [Chem. 49, c[c[Cys-His-D-Phe-Arg-Trp-Cys]-His- D-Phe-Arg-Trp]] (cyclo(CH[dF]RWCH[dF]RW); disulfide 1-6)	> 5.5		>4				
C[C@@H]1NC(=O)[C@H](CC(=O)O)NC(=O)[C@H](CC(=O)O)NC(=O)[C@H](C)NC(=O)[C@@H]2CSSC[C@H](NC(=O)[C@H](Cc3c[nH]c4ccccc34)NC1=O)C(=O)N1CSC[C@H]1C(=O)N[C@@H](Cc1c[nH]cn1)C(=O)N[C@H](Cc1ccccc1)C(=O)N[C@@H](Cc1c[nH]cn1)C(=O)N[C@@H](Cc1c[nH]c3ccccc13)C(=O)N2 [Chem. 106, c[c[Cys-THAZ-His-D-Phe-His-Trp- Cys]-Ala-Asp-Asp-Ala-Trp]] (cyclo(ADDAWC[Thz]H[dF]HWC); disulfide 6-12)	> 100	10.6	>10				
